How the values were obtained:
[1] = tested on: Salmonella typhimurium TA98; assay: Ames test (reverse mutation test), pre-incubation method, strain TA98
Procedure: (§1) Ames Test (Reverse Mutation Test)
(§2) Metabolites 1 to 3 and Metabolites A to E were each tested herein. The purpose of this test is to evaluate the potential of each metabolite to induce reverse mutations in the standard strains of Salmonella typhimurium (TA98, TA1537, TA100, and TA1535) and Escherichia coli (WP2uvrA), in either the presence or absence of a rat liver metabolic activation system (S9 mix).
(§3) The solvent used herein was dimethyl sulfoxide (DMSO, 100 μL/plate).
(§4) The test was performed by the pre-incubation method with or without S9 mix. When the test was performed without S9 mix, sodium phosphate buffer solution (pH 7.4) was added.
(§5) 0.5 mL of S9 mix or 0.5 mL of 0.1 mol/L sodium phosphate buffer solution (pH 7.4), and 0.1 mL of the bacterial culture solution were added to a test tube containing 0.1 mL of the negative control formulation (DMSO alone), the metabolite, or the positive control formulation. The mixtures were pre-incubated at 37° C. for 20 minutes while shaking. After the pre-incubation period, 2 mL of top agar were added and the mixtures were vortex-mixed and seeded onto plates. Two plates per treatment were used. Each plate was incubated at 37±1° C. for 48 hours or more and the revertant colonies were counted. The mean number of revertant colonies for each treatment plate was then calculated. The presence or absence of growth inhibition due to any antibacterial effect of the test article and precipitation of the test article was observed grossly or under a stereomicroscope. […] Evaluation was based on mean values with no statistical comparisons being used.

[2] = tested on: Salmonella typhimurium TA1537; assay: Ames test (reverse mutation test), pre-incubation method, strain TA1537; assay type: cell-based
Procedure: as §1, §2, §3, §4, §5

[3] = tested on: Salmonella typhimurium TA100; assay: Ames test (reverse mutation test), pre-incubation method, strain TA100; assay type: cell-based
Procedure: as §1, §2, §3, §4, §5

[4] = tested on: Salmonella typhimurium TA1535; assay: Ames test (reverse mutation test), pre-incubation method, strain TA1535; assay type: cell-based
Procedure: as §1, §2, §3, §4, §5

Escherichia coli WP2uvrA = assay: Ames test (reverse mutation test), pre-incubation method, strain WP2uvrA; assay type: cell-based
From the text: as §1
Two plates per treatment were used.

CC(C)(Oc1cc(F)cc(-c2cc(N)nn2-c2cnc(C(F)(F)F)nc2)c1)C(F)(F)F [Metabolite 1]
Number of revertant colonies TA98 ([1]; S9 mix +, dose 185 μg/plate): 40
Number of revertant colonies TA98 ([1]; S9 mix −, dose 21 μg/plate): 32
Number of revertant colonies TA1537 ([2]; S9 mix +, dose 6.9 μg/plate): 13
Number of revertant colonies TA1537 ([2]; S9 mix +, dose 21 μg/plate): 12
Number of revertant colonies TA1537 ([2]; S9 mix +, dose 62 μg/plate): 13
Number of revertant colonies TA1537 ([2]; S9 mix +, dose 185 μg/plate): 13
Number of revertant colonies TA1537 ([2]; S9 mix +, dose 556 μg/plate): 10
Number of revertant colonies TA1537 ([2]; S9 mix +, dose 1667 μg/plate): 9
Number of revertant colonies TA1537 ([2]; S9 mix +, dose 5000 μg/plate): 4
Number of revertant colonies TA1537 ([2]; S9 mix −, dose 6.9 μg/plate): 8
Number of revertant colonies TA1537 ([2]; S9 mix −, dose 21 μg/plate): 8
Number of revertant colonies TA1537 ([2]; S9 mix −, dose 62 μg/plate): 8
Number of revertant colonies TA1537 ([2]; S9 mix −, dose 185 μg/plate): 9
Number of revertant colonies TA1537 ([2]; S9 mix −, dose 556 μg/plate): 9
Number of revertant colonies TA1537 ([2]; S9 mix −, dose 1667 μg/plate): 5
Number of revertant colonies TA1537 ([2]; S9 mix −, dose 5000 μg/plate): 3
Number of revertant colonies TA100 ([3]; S9 mix +, dose 6.9 μg/plate): 132
Number of revertant colonies TA100 ([3]; S9 mix +, dose 21 μg/plate): 132
Number of revertant colonies TA100 ([3]; S9 mix +, dose 62 μg/plate): 113
Number of revertant colonies TA100 ([3]; S9 mix +, dose 185 μg/plate): 108
Number of revertant colonies TA100 ([3]; S9 mix +, dose 556 μg/plate): 128
Number of revertant colonies TA100 ([3]; S9 mix +, dose 1667 μg/plate): 131
Number of revertant colonies TA100 ([3]; S9 mix +, dose 5000 μg/plate): 121
Number of revertant colonies TA100 ([3]; S9 mix −, dose 6.9 μg/plate): 89
Number of revertant colonies TA100 ([3]; S9 mix −, dose 21 μg/plate): 87
Number of revertant colonies TA100 ([3]; S9 mix −, dose 62 μg/plate): 87
Number of revertant colonies TA100 ([3]; S9 mix −, dose 185 μg/plate): 89
Number of revertant colonies TA100 ([3]; S9 mix −, dose 556 μg/plate): 80
Number of revertant colonies TA100 ([3]; S9 mix −, dose 1667 μg/plate): 69
Number of revertant colonies TA100 ([3]; S9 mix −, dose 5000 μg/plate): 47
Number of revertant colonies TA1535 ([4]; S9 mix +, dose 6.9 μg/plate): 10
Number of revertant colonies TA1535 ([4]; S9 mix +, dose 21 μg/plate): 8
Number of revertant colonies TA1535 ([4]; S9 mix +, dose 62 μg/plate): 9
Number of revertant colonies TA1535 ([4]; S9 mix +, dose 185 μg/plate): 10
Number of revertant colonies TA1535 ([4]; S9 mix +, dose 556 μg/plate): 9
Number of revertant colonies TA1535 ([4]; S9 mix +, dose 1667 μg/plate): 10
Number of revertant colonies TA1535 ([4]; S9 mix +, dose 5000 μg/plate): 7
Number of revertant colonies TA1535 ([4]; S9 mix −, dose 6.9 μg/plate): 11
Number of revertant colonies TA1535 ([4]; S9 mix −, dose 21 μg/plate): 10
Number of revertant colonies TA1535 ([4]; S9 mix −, dose 62 μg/plate): 9
Number of revertant colonies TA1535 ([4]; S9 mix −, dose 185 μg/plate): 7
Number of revertant colonies TA1535 ([4]; S9 mix −, dose 556 μg/plate): 9
Number of revertant colonies TA1535 ([4]; S9 mix −, dose 1667 μg/plate): 5
Number of revertant colonies TA1535 ([4]; S9 mix −, dose 5000 μg/plate): 7
Number of revertant colonies WP2uvrA (Escherichia coli WP2uvrA; S9 mix +, dose 6.9 μg/plate): 18
Number of revertant colonies WP2uvrA (Escherichia coli WP2uvrA; S9 mix +, dose 21 μg/plate): 20
Number of revertant colonies WP2uvrA (Escherichia coli WP2uvrA; S9 mix +, dose 62 μg/plate): 18
Number of revertant colonies WP2uvrA (Escherichia coli WP2uvrA; S9 mix +, dose 185 μg/plate): 16
Number of revertant colonies WP2uvrA (Escherichia coli WP2uvrA; S9 mix +, dose 556 μg/plate): 18
Number of revertant colonies WP2uvrA (Escherichia coli WP2uvrA; S9 mix +, dose 1667 μg/plate): 14
Number of revertant colonies WP2uvrA (Escherichia coli WP2uvrA; S9 mix +, dose 5000 μg/plate): 11
Number of revertant colonies WP2uvrA (Escherichia coli WP2uvrA; S9 mix −, dose 6.9 μg/plate): 17
Number of revertant colonies WP2uvrA (Escherichia coli WP2uvrA; S9 mix −, dose 21 μg/plate): 19
Number of revertant colonies WP2uvrA (Escherichia coli WP2uvrA; S9 mix −, dose 62 μg/plate): 16
Number of revertant colonies WP2uvrA (Escherichia coli WP2uvrA; S9 mix −, dose 185 μg/plate): 17
Number of revertant colonies WP2uvrA (Escherichia coli WP2uvrA; S9 mix −, dose 556 μg/plate): 18
Number of revertant colonies WP2uvrA (Escherichia coli WP2uvrA; S9 mix −, dose 1667 μg/plate): 15
Number of revertant colonies WP2uvrA (Escherichia coli WP2uvrA; S9 mix −, dose 5000 μg/plate): 9

Nc1cc(-c2cc(F)cc(OC(F)(F)F)c2)n(-c2cncc(F)c2)n1 [Metabolite 2]
Number of revertant colonies TA98 ([1]; S9 mix +, dose 62 μg/plate): 35
Number of revertant colonies TA98 ([1]; S9 mix −, dose 21 μg/plate): 30
Number of revertant colonies TA98 ([1]; S9 mix −, dose 185 μg/plate): 28
Number of revertant colonies TA1537 ([2]; S9 mix +, dose 6.9 μg/plate): 12
Number of revertant colonies TA1537 ([2]; S9 mix +, dose 21 μg/plate): 13
Number of revertant colonies TA1537 ([2]; S9 mix +, dose 62 μg/plate): 12
Number of revertant colonies TA1537 ([2]; S9 mix +, dose 185 μg/plate): 12
Number of revertant colonies TA1537 ([2]; S9 mix +, dose 556 μg/plate): 8
Number of revertant colonies TA1537 ([2]; S9 mix +, dose 1667 μg/plate): 0
Number of revertant colonies TA1537 ([2]; S9 mix +, dose 5000 μg/plate): 1
Number of revertant colonies TA1537 ([2]; S9 mix −, dose 6.9 μg/plate): 9
Number of revertant colonies TA1537 ([2]; S9 mix −, dose 21 μg/plate): 8
Number of revertant colonies TA1537 ([2]; S9 mix −, dose 62 μg/plate): 8
Number of revertant colonies TA1537 ([2]; S9 mix −, dose 185 μg/plate): 8
Number of revertant colonies TA1537 ([2]; S9 mix −, dose 556 μg/plate): 3
Number of revertant colonies TA1537 ([2]; S9 mix −, dose 1667 μg/plate): 3
Number of revertant colonies TA1537 ([2]; S9 mix −, dose 5000 μg/plate): 2
Number of revertant colonies TA100 ([3]; S9 mix +, dose 6.9 μg/plate): 109
Number of revertant colonies TA100 ([3]; S9 mix +, dose 21 μg/plate): 119
Number of revertant colonies TA100 ([3]; S9 mix +, dose 62 μg/plate): 118
Number of revertant colonies TA100 ([3]; S9 mix +, dose 185 μg/plate): 125
Number of revertant colonies TA100 ([3]; S9 mix +, dose 556 μg/plate): 115
Number of revertant colonies TA100 ([3]; S9 mix +, dose 1667 μg/plate): 97
Number of revertant colonies TA100 ([3]; S9 mix +, dose 5000 μg/plate): 92
Number of revertant colonies TA100 ([3]; S9 mix −, dose 6.9 μg/plate): 89
Number of revertant colonies TA100 ([3]; S9 mix −, dose 21 μg/plate): 90
Number of revertant colonies TA100 ([3]; S9 mix −, dose 62 μg/plate): 87
Number of revertant colonies TA100 ([3]; S9 mix −, dose 185 μg/plate): 86
Number of revertant colonies TA100 ([3]; S9 mix −, dose 556 μg/plate): 6
Number of revertant colonies TA100 ([3]; S9 mix −, dose 1667 μg/plate): 5
Number of revertant colonies TA100 ([3]; S9 mix −, dose 5000 μg/plate): 5
Number of revertant colonies WP2uvrA (Escherichia coli WP2uvrA; S9 mix +, dose 6.9 μg/plate): 19
Number of revertant colonies WP2uvrA (Escherichia coli WP2uvrA; S9 mix +, dose 21 μg/plate): 19
Number of revertant colonies WP2uvrA (Escherichia coli WP2uvrA; S9 mix +, dose 62 μg/plate): 19
Number of revertant colonies WP2uvrA (Escherichia coli WP2uvrA; S9 mix +, dose 185 μg/plate): 19
Number of revertant colonies WP2uvrA (Escherichia coli WP2uvrA; S9 mix +, dose 556 μg/plate): 17
Number of revertant colonies WP2uvrA (Escherichia coli WP2uvrA; S9 mix +, dose 1667 μg/plate): 14
Number of revertant colonies WP2uvrA (Escherichia coli WP2uvrA; S9 mix +, dose 5000 μg/plate): 9
Number of revertant colonies WP2uvrA (Escherichia coli WP2uvrA; S9 mix −, dose 6.9 μg/plate): 21
Number of revertant colonies WP2uvrA (Escherichia coli WP2uvrA; S9 mix −, dose 21 μg/plate): 16
Number of revertant colonies WP2uvrA (Escherichia coli WP2uvrA; S9 mix −, dose 62 μg/plate): 23
Number of revertant colonies WP2uvrA (Escherichia coli WP2uvrA; S9 mix −, dose 185 μg/plate): 20
Number of revertant colonies WP2uvrA (Escherichia coli WP2uvrA; S9 mix −, dose 556 μg/plate): 16
Number of revertant colonies WP2uvrA (Escherichia coli WP2uvrA; S9 mix −, dose 1667 μg/plate): 13
Number of revertant colonies WP2uvrA (Escherichia coli WP2uvrA; S9 mix −, dose 5000 μg/plate): 8

Reference: patent US10988462B2, “Pyrazole compounds substituted with heteroaryl and pharmaceutical use thereof” (Japan Tobacco Inc., priority 2018, dated 2021)
